The structures appear in SMILES notation.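 These data come from cells grown in 96-well plates and exposed to compound for 48 hours at five concentrations. GI50 marks 50% less growth. TGI: concentration producing complete growth inhibition.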

Here are results for nine molecules from PubChem BioAssay (NCI).

Common to all, as to test: NCI anticancer screen, dose series, 48 h
The subject of test [1] is RPMI-8226 leukemia.
In test [2] the test system is TK-10 renal.
The subject of test [3] is NCI-H226 lung.
The subject of test [4] is OVCAR-4 ovarian.
Test [5] relates to OVCAR-3 ovarian.
For test [6], the system named is HCT-15 colon.
Test [7] concerns ACHN renal.
For test [8], the system named is A498 renal.
The subject of test [9] is NCI-H522 lung.
The subject of test [10] is OVCAR-5 ovarian.

Consider `OC(c1ccccc1)(c1ccccc1)c1ccccn1`, for which the TGI in test [1], in test [2], in [3], in [4], in [5] and in test [6] was more than 100 µM each time. Moreover, the TGI in test [7], in test [8], in test [9] and in test [10] was more than 100 µM each time.
As to `CCCc1cc(=O)oc2c(C(=O)CC(C)C)c(O)c(CC=C(C)C)c(O)c12`, the GI50 is 2.86 µM in [1]; 12.2 µM in test [2]; 11.8 µM in [3]; 10.7 µM in [4]; 3.53 µM in test [5]; 5.81 µM in [6]. In addition, the GI50 in test [7] is 7.53 µM; in [8] it was 4.04 µM; in [9], 8.17 µM. In addition, the TGI is 22.1 µM in test [1]; more than 50 µM in test [2]; 38.5 µM in test [3]; more than 50 µM in [4]; more than 50 µM in test [5]; more than 50 µM in [6]. Besides, the TGI in test [7] was 47.1 µM; in test [8], 17.9 µM; in test [9], more than 50 µM.
Consider `O=C(N[C@H](c1ccc(Cl)c(Cl)c1)C1CNC1)c1ccc2cnccc2c1`, for which the GI50 was 3.9 µM in [1]; 1.73 µM in test [2]; 4.3 µM in test [3]; 5.68 µM in [4]; 11.5 µM in test [5]; 5.02 µM in [6]. In addition, the GI50 in test [7] was 6.11 µM; in [8], 1.78 µM; in test [9], 12.9 µM; in test [10], 2.94 µM. Moreover, the TGI in test [1] was 14.1 µM; in test [2] it was 10.7 µM; in test [3] it was 19.7 µM; in test [4], 19.4 µM; in [5] it was 23.9 µM; in test [6] it was 18.3 µM. Also, the TGI in [7] was found to be 18.9 µM; in test [8] it was 10.5 µM; in test [9], 26.5 µM; in test [10], 16.7 µM.
Consider `CCOP(=O)(CCP(=O)(OCC)OCC)OCC.C[CH2][Sn]([Cl])([Cl])[CH2]C`, for which the GI50 in test [1] is 22.7 µM; in test [2], 30.6 µM; in test [3] it was 20.3 µM; in test [4] it was more than 48.7 µM; in test [5], more than 84.3 µM; in [6], 51.2 µM. In addition, the GI50 in test [7] is 36.7 µM; in test [8] it was 17.4 µM; in test [9] it was 1.64 µM; in test [10], 72 µM. Besides, the TGI was 67.2 µM in test [1]; 52 µM in [2]; 42.7 µM in test [3]; more than 71.9 µM in test [4]; more than 100 µM in test [5]; more than 78.7 µM in test [6]. Moreover, the TGI in [7] is 57.1 µM; in test [8] it was 26 µM; in test [9], 4.97 µM; in test [10], more than 100 µM.
For `C[N+](C)(C)CCOP(=O)(O)OP(=O)([O-])OCC1CCC(n2ccc(N)nc2=O)O1` (stereo unspecified), the TGI in test [1], in test [2], in test [3], in test [4], in test [5] and in test [6] was more than 100 µM each time. Further, the TGI in test [7], in test [8], in [9] and in [10] was more than 100 µM in each case.
For `Clc1ccc(-c2nc3c(-c4ccc(Cl)cc4)nc(-c4ccccc4)cn3c2-c2ccc(Cl)cc2)cc1`, the GI50 in [1] was more than 50 µM; in test [2], 34.3 µM; in test [3], more than 50 µM; in test [4], more than 50 µM; in test [5], more than 50 µM; in test [6], more than 50 µM. The GI50 was more than 50 µM in [7], more than 50 µM in test [8], 44.7 µM in test [9] and more than 50 µM in test [10]. Besides, the TGI in test [1], in test [2], in test [3], in test [4], in test [5] and in test [6] was more than 50 µM in each case. The TGI in test [7], in test [8], in test [9] and in [10] was more than 50 µM in each case.
Take `COc1cc(CNC(=O)/C=C/C=C/c2ccc3c(c2)OCO3)ccc1OCc1cn(-c2ccc(Cl)c(Cl)c2)nn1`: the GI50 in [1] was 2.3 µM; in [2], 2.31 µM; in test [3] it was 1.74 µM; in test [4] it was 1.09 µM; in test [5] it was 1.42 µM; in test [6], 0.519 µM. Moreover, the GI50 in [7] was 0.504 µM; in test [8], 1.57 µM; in test [9], 1.81 µM; in [10], 1.77 µM. For the same molecule, the TGI in test [1] stood at 8.36 µM; in test [2], 7.65 µM; in [3], 4.31 µM; in test [4], 2.72 µM; in [5] it was 2.81 µM; in test [6], 2.5 µM. Also, the TGI in test [7] came to 1.77 µM; in [8], 3.22 µM; in [9] it was 5.11 µM; in [10] it was 3.99 µM.
For the molecule `CCOC(=O)CC(=O)ON(C)C(=O)Cc1ccccc1`, the TGI in [1], in test [3], in [4], in [5], in [6] and in test [7] was more than 100 µM each time. The TGI in test [8], in test [9] and in [10] was more than 100 µM in each case.
In the case of `OC(c1cc(C(O)(C(F)(F)F)C(F)(F)F)ncn1)(C(F)(F)F)C(F)(F)F`, the TGI in test [1], in [2], in [3], in [4], in [5] and in [6] was more than 10 µM in each case. Further, the TGI in [7], in test [8] and in [9] was more than 10 µM each time.
